Measured values from ChEMBL document CHEMBL1201862, “PubChem BioAssay data set” (2004).
Active and inactive are the calls of the source.

Key:
[1] = target: Sphingosine 1-phosphate receptor 2 (Homo sapiens, UniProt O95136); assay: Dose Response Cell Based Assay for Agonists of the S1P2 Receptor of Purchased Analogues. [Related pubchem assays: 729, 843, 854, 736 ]; type: functional
[2] = tested on: Streptococcus sp. 'group A'; assay: growth inhibition of control SK(-) GAS strain, dose response, counter-screen for streptokinase expression inhibitor project, luminescence, kanamycin, BacTiterGlo, confirmation (AID 1900); type: functional, organism-based
Streptokinase A = target: T1, Streptokinase A (Streptococcus pyogenes serotype M1, UniProt P10520); assay: S. pyogenes streptokinase expression inhibitors, potency, dose response, plasminogen activation absorbance, OD405 (AID 1914); type: functional, Streptococcus pyogenes M1 GAS;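 further: secreted streptokinase activity via plasminogen activation per viability signal from cell pellet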
T1 sequence (P10520 whole entry): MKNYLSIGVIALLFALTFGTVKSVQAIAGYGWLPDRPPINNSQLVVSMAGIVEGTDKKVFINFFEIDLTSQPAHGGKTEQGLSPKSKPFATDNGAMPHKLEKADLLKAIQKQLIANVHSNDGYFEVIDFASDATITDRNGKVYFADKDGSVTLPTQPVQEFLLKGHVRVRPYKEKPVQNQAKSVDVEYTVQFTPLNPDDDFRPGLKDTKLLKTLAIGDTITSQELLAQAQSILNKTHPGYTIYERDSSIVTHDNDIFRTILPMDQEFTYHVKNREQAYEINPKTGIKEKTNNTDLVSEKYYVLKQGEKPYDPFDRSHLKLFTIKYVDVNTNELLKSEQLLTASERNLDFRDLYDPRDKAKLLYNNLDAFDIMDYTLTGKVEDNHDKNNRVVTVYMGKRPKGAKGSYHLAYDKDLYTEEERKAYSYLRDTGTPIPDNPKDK

[3] = target: 5-hydroxytryptamine receptor 1E (Homo sapiens, UniProt P28566); assay: Counterscreen assay for S1P3 antagonists: Dose response cell-based high throughput screening assay to identify antagonists of the 5-Hydroxytryptamine Receptor Subtype 1E (5HT1E). [Related pubchem assays: 1429, 485 ]; type: functional
Sequence of 5-hydroxytryptamine receptor 1E (P28566 whole entry): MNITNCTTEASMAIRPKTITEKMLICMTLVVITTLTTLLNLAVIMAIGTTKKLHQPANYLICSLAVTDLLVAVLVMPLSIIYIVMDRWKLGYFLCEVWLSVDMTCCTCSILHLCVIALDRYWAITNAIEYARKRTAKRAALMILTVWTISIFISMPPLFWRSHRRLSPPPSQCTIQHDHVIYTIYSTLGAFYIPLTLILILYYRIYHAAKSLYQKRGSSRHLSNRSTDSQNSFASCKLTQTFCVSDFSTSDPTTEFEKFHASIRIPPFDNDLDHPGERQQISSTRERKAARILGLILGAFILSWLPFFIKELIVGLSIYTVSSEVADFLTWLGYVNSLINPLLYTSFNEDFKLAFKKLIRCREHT

[4] = target: Sphingosine 1-phosphate receptor 3 (Homo sapiens, UniProt Q99500); assay: Dose response cell-based high throughput screening assay for antagonists of the Sphingosine 1-Phosphate Receptor 3 (S1P3). [Related pubchem assays: 1429, 485 ]; type: functional
Sequence of Sphingosine 1-phosphate receptor 3 (Q99500 whole entry): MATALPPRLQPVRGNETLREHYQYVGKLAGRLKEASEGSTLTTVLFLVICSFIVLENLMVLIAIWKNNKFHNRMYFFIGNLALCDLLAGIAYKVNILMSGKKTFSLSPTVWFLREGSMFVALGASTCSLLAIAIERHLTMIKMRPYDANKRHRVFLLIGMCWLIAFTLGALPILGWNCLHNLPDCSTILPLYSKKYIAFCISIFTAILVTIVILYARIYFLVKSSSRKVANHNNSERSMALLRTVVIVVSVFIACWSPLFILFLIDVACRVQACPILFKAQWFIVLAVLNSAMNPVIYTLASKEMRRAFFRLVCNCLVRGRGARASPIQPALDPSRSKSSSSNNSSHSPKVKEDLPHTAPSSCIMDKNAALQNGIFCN

Streptococcus = assay: Group A Streptococcus viability loss, dose response, counter-screen for streptokinase expression inhibitor project, luminescence, BacTiterGlo (AID 1915); type: functional, organism-based;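 further: potency for reduction of bacterial viability or growth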
[5] = A549 cell cytotoxicity, dose response, cytotoxicity control, plate reader, cherry-pick, antagonist series (AID 743412); type: functional, cell-based
[6] = HepG2 cell cytotoxicity, dose response, cytotoxicity control, plate reader, cherry-pick, antagonist series (AID 743416); type: functional, cell-based
[7] = LGR2 antagonists, dose response, cell-based, HEK293, CRE-luciferase reporter, cherry pick, set 2 (AID 743343); type: functional;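 further: transfected cells were stimulated with diluted bursicon conditioned medium after compound addition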
[8] = MC4R antagonists, dose response, counter-screen for LGR2 antagonist project, cell-based, plate reader, cherry pick (AID 743444); type: functional;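 further: transfected HEK 293 cells stimulated with alpha-MSH peptide; potency of inhibitors of the alpha-MSH evoked signal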
[9] = HEK293 cell cytotoxicity, dose response, cytotoxicity control, plate reader, cherry-picked samples (AID 743446); type: functional, cell-based
[10] = target: Epstein-Barr nuclear antigen 1 (Epstein-Barr virus (strain B95-8) (HHV-4) (Human herpesvirus 4), UniProt P03211); assay: EBNA-1 inhibitors, dose response, biochemical, fluorescence polarization, 1536-well (AID 2381); parameters: species or system human gammaherpesvirus 4;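 further: fluorescence polarization of a Cy5 DNA probe bound by EBNA-1 protein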
Sequence of Epstein-Barr nuclear antigen 1 (P03211 whole entry): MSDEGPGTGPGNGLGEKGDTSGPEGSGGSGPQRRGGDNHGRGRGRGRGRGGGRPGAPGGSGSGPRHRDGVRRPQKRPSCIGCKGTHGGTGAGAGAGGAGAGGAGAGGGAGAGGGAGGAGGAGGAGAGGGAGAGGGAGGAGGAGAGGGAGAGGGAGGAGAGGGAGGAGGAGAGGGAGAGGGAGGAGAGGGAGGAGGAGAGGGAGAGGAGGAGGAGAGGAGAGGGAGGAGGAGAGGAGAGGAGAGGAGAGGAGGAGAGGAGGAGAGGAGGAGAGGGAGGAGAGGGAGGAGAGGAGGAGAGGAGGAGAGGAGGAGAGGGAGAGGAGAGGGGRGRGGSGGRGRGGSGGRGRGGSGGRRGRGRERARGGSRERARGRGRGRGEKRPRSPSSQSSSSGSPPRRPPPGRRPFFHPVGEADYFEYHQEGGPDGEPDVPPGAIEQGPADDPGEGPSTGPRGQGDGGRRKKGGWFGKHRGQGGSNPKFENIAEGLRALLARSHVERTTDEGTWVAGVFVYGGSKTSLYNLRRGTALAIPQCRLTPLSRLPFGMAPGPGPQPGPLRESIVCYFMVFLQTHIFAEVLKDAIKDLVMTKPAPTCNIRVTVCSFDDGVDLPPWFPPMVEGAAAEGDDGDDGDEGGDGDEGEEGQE

[11] = target: Lytic switch protein BZLF1 (Epstein-Barr virus (strain B95-8) (HHV-4) (Human herpesvirus 4), UniProt P03206); assay: EBV ZTA inhibitors, dose response, counter-screen for EBNA-1 inhibitor project, biochemical, fluorescence polarization, Epstein-Barr virus, 1536-well (AID 2377); parameters: species or system human gammaherpesvirus 4;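 further: fluorescence polarization of Cy5-labelled ZRE DNA probe bound by purified Zta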
Sequence of Lytic switch protein BZLF1 (P03206 whole entry): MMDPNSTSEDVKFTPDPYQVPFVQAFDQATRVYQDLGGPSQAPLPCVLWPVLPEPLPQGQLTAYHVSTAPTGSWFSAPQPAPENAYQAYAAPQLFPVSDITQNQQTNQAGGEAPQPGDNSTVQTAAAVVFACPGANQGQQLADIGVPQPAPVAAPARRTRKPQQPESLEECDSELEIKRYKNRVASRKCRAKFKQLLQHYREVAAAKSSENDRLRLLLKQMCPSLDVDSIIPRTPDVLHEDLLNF

Mucolipin-3 = Mucolipin-3 (Homo sapiens, UniProt Q8TDD5); assay: Dose response cell-based high-throughput screening assay for agonists of the transient receptor potential channel ML3 (TRPML3). [Related pubchem assays: 1526, 1424, 1448 ]; type: functional
Sequence of Mucolipin-3 (Q8TDD5 whole entry): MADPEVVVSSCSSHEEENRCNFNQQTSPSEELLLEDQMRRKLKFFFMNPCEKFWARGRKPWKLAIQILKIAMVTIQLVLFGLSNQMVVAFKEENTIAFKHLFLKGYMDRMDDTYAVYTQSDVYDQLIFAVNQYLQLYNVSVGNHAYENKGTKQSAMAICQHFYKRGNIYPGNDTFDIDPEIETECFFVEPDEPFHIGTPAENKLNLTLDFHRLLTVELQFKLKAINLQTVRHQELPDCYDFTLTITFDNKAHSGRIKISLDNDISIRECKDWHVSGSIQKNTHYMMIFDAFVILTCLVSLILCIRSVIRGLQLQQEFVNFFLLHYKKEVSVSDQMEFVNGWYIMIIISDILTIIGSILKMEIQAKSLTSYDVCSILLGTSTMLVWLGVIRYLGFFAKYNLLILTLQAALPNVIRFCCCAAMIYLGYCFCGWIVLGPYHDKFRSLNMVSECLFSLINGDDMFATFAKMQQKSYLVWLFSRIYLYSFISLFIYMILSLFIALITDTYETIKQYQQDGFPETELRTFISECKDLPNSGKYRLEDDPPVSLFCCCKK

Ion channel NompC = Ion channel NompC (Danio rerio, UniProt Q7T1G6); assay: Fluorescence counterscreen assay for TRPML3 agonists: dose response cell-based high-throughput screening assay to identify agonists of the transient receptor potential channel N1 (TRPN1). [Related pubchem assays: 1526, 1424, 1448 ]; type: functional
Sequence of Ion channel NompC (Q7T1G6 whole entry): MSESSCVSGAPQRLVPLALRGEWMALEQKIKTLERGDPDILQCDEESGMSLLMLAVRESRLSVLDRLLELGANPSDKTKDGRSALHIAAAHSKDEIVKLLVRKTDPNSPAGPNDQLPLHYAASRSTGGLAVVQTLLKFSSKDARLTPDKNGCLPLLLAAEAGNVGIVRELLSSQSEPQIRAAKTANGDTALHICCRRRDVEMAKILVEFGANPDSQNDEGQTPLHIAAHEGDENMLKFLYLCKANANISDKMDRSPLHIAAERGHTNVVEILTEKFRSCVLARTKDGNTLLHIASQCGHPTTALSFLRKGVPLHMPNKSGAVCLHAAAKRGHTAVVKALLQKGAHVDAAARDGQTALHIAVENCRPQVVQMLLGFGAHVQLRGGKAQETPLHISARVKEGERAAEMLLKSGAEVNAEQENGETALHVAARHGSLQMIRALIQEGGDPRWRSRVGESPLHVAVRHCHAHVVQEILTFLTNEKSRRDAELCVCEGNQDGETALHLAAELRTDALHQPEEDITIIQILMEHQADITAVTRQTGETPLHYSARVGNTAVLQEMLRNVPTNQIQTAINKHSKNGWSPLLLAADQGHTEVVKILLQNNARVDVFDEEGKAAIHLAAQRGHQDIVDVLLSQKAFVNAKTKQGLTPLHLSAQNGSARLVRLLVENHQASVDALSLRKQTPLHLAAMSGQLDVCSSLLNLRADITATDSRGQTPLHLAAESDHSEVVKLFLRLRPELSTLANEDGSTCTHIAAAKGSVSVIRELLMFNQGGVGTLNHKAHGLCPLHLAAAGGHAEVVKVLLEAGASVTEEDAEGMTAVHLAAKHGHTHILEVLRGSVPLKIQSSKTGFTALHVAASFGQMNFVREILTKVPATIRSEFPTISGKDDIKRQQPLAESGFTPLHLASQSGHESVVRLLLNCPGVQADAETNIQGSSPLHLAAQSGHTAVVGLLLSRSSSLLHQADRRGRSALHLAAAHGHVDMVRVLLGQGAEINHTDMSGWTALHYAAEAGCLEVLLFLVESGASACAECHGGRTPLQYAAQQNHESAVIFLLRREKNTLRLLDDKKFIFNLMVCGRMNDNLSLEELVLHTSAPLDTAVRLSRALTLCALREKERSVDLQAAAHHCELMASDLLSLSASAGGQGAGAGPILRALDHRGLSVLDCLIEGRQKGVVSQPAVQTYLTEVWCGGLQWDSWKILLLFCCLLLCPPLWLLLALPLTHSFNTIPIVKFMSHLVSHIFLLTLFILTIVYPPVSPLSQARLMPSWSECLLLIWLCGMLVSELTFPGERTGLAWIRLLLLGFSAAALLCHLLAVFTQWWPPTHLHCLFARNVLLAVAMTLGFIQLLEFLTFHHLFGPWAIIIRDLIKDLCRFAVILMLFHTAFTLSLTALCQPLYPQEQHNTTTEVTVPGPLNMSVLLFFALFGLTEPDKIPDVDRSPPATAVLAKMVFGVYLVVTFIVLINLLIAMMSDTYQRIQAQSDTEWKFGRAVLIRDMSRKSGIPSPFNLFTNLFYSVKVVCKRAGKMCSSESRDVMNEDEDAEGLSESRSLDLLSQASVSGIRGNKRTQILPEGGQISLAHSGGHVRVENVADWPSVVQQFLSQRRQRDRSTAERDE

Sequence of Sphingosine 1-phosphate receptor 2 (O95136 whole entry): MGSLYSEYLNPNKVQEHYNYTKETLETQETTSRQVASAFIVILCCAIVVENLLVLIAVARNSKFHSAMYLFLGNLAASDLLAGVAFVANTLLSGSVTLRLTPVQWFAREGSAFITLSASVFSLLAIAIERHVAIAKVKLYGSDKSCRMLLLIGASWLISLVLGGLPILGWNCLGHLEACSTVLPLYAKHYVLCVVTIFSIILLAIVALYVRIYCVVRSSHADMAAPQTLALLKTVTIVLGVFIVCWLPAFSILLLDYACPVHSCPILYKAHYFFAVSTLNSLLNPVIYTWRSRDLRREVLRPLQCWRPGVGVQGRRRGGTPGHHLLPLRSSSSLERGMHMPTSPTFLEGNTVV

Cc1cc(C(=O)COC(=O)C2CCC2)c(C)n1Cc1ccccc1
EC50 [1]: > 30 µM (not active)

Cc1cccc(Cn2nc(C(C)(C)C)cc2C(=O)Nc2ccc(F)cc2)c1
EC50 [2]: 7.66 µM (active)
EC50 (Streptokinase A): 1.9 µM (active)
IC50 [3]: 3.86 µM (active)
IC50 [4]: 5.22 µM (active)
EC50 (Streptococcus): 16.3 µM (active)
AC50 [5]: 26.5 µM (active)
AC50 [6]: > 52 µM (inactive)
AC50 [7]: 14.6 µM (active)
AC50 [8]: 26.4 µM (active)
AC50 [9]: 8.76 µM (active)

c1ccc(-c2ccc(C3=Nn4c(nnc4-c4cc(-c5ccccc5)[nH]n4)SC3)cc2)cc1
IC50 [10]: 16.1 µM (not active)
IC50 [11]: > 111 µM (not active)

Cc1cc(C)c(C(=O)c2ccc(C(=O)N(C(C)C)C(C)C)cc2)c(C)c1
EC50 (Mucolipin-3): 2.24 µM (active)
EC50 (Ion channel NompC): > 29.9 µM (not active)
